Experimental data: patent US20050203067A1, “Pesticidal compositions and methods” (priority 2003, published 2005)
pEC50: −log10 of the molar value. In brackets after ≈: the same amount, converted by molar mass. Several values for one entry are separate records, joined by “and”; a condition that tells them apart may be missing. Equal values may be shown once. Read-outs that look alike come from different tables or passages of the source.

What was measured:
C. elegans [1] = experiment: C. elegans liquid (well) assay; format: in vivo; settings: Caenorhabditis elegans, read-out: Well EC50
Fusarium graminearum = experiment: microbe, parasite or virus in culture; format: cell-based; settings: read-out: growth inhibition
Alternaria solani = experiment: microbe, parasite or virus in culture; format: cell-based; settings: read-out: growth inhibition
[2] = test system: Meloidogyne incognita J2 larvae; experiment: Miniaturized greenhouse assay on cucumber seedlings, root gall rating; format: in vivo
[3] = test system: root knot nematode (Meloidogyne incognita); settings: in vivo
C. elegans [4] = experiment: C. elegans agar (plate) assay; format: in vivo; settings: Caenorhabditis elegans, read-out: Plate EC50
Botrytis cinerea = experiment: microbe, parasite or virus in culture; format: cell-based; settings: read-out: growth inhibition
C. elegans (strain N2) = experiment: C. elegans contact assay (NGM-agar, 24-well); format: in vivo; settings: Caenorhabditis elegans, 96 h
Sclerotinia sclerotiorum = experiment: microbe, parasite or virus in culture; format: cell-based; settings: read-out: growth inhibition
tomato plants = settings: in vivo
several arthropods = settings: in vivo
cucumber seedling = experiment: Miniaturized greenhouse assay, phytotoxicity rating; settings: 200 ppm
P. falciparum = settings: cited from earlier work
P. falciparum PEAMT = P. falciparum PEAMT (Plasmodium falciparum, UniProt Q8IDQ9); settings: cited from earlier work
P. falciparum PEAMT, sequence (Q8IDQ9 whole entry): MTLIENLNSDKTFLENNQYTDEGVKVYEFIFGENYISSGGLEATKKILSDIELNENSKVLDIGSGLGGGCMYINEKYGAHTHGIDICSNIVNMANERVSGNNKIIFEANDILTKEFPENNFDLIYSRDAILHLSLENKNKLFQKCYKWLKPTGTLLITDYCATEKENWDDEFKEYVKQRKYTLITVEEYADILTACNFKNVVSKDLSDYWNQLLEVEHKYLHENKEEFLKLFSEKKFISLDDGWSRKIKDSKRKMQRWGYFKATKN

SMILES: O=S(=O)(F)CCNc1ccc(N=Nc2ccccc2)cc1 [Compound 3746, 2-(4-phenylazo-phenylamino)-ethanesulfonyl fluoride]
- EC50 (C. elegans [1]): 6.3 to 12.5 µg/mL (≈ 20.5 to 40.7 µM)
- inhibition at 1.63 µM (Fusarium graminearum; 1.63 μM): < 25%
- inhibition at 16.3 µM (Fusarium graminearum; 16.3 μM): > 75%
- inhibition at 1.63 µM (Alternaria solani; 1.63 μM): < 25%
- inhibition at 16.3 µM (Alternaria solani; 16.3 μM): > 75%
- Gall 40 (gall rating) ([2]; 40 ppm): 1.33 and 2.00
- Gall 200 (gall rating) ([2]; 200 ppm): 0.00
- toxicity to fungal species (various fungal species): Low to moderate toxicity
- nematode control (gall ratings) [3]: nematode control approaching that of the commercial nematicides fenamiphos (Nemacur)
- EC50 (C. elegans [4]): 1.6 µg/mL (≈ 5.21 µM)
- inhibition at 1.63 µM (Botrytis cinerea; 1.63 μM): < 25%
- inhibition at 16.3 µM (Botrytis cinerea; 16.3 μM): > 75%
- Result (arthropod toxicity) (Beet army worm; 2500 μM): No effect
- Result (arthropod toxicity) (Beet army worm; 25000 μM): Lethal
- pEC50 (C. elegans (strain N2)): 5.70
- inhibition at 16.3 µM (Sclerotinia sclerotiorum; 16.3 μM): < 25%
- inhibition at 163 µM (Sclerotinia sclerotiorum; 163 μM): > 75%
- Result (arthropod toxicity) (Corn ear worm; 2500 μM): Non-effect
- Result (arthropod toxicity) (Corn ear worm; 25000 μM): Lethal
- phytotoxicity (root weights) (tomato plants): no phytoxicity
- toxicity to arthropods (several arthropods): not toxic
- Ptox 200 (phytotoxicity rating) (cucumber seedling): 3.00 and 2.67

SMILES: CCCCCCCCCCCCCCCCOP(=O)([O-])OCC[N+](C)(C)C [miltefosine]
- parasite proliferation within human erythrocytes (P. falciparum): inhibits parasite proliferation
- inhibition of the plasmodium PEAMT enzyme (P. falciparum PEAMT): inhibited
